In BigSolDB 2.1:

SMILES: O=C(O)c1ccc(Br)cn1
- solubility (mole fraction) (in 1,4-dioxane, 288.15 K): 0.0326
- solubility (mole fraction) (in 1,4-dioxane, 293.15 K): 0.0378
- solubility (mole fraction) (in 1,4-dioxane, 298.15 K): 0.0435
- solubility (mole fraction) (in 1,4-dioxane, 303.15 K): 0.0502
- solubility (mole fraction) (in 1,4-dioxane, 308.15 K): 0.0574
- solubility (mole fraction) (in 1,4-dioxane, 313.15 K): 0.0656
- solubility (mole fraction) (in 1,4-dioxane, 318.15 K): 0.0744
- solubility (mole fraction) (in 1,4-dioxane, 323.15 K): 0.0831
- solubility (mole fraction) (in THF, 278.15 K): 0.0326
- solubility (mole fraction) (in THF, 283.15 K): 0.0374
- solubility (mole fraction) (in THF, 288.15 K): 0.0426
- solubility (mole fraction) (in THF, 293.15 K): 0.0478
- solubility (mole fraction) (in THF, 298.15 K): 0.0543
- solubility (mole fraction) (in THF, 303.15 K): 0.0611
- solubility (mole fraction) (in THF, 308.15 K): 0.0663
- solubility (mole fraction) (in THF, 313.15 K): 0.0742
- solubility (mole fraction) (in THF, 318.15 K): 0.0803
- solubility (mole fraction) (in THF, 323.15 K): 0.0886
- solubility (mole fraction) (in acetonitrile, 278.15 K): 0.00178
- solubility (mole fraction) (in acetonitrile, 283.15 K): 0.00219
- solubility (mole fraction) (in acetonitrile, 288.15 K): 0.00266
- solubility (mole fraction) (in acetonitrile, 293.15 K): 0.0032
- solubility (mole fraction) (in acetonitrile, 298.15 K): 0.00381
- solubility (mole fraction) (in acetonitrile, 303.15 K): 0.00449
- solubility (mole fraction) (in acetonitrile, 308.15 K): 0.00524
- solubility (mole fraction) (in acetonitrile, 313.15 K): 0.00607
- solubility (mole fraction) (in acetonitrile, 318.15 K): 0.00698
- solubility (mole fraction) (in acetonitrile, 323.15 K): 0.00797
- solubility (mole fraction) (in ethanol, 278.15 K): 0.00865
- solubility (mole fraction) (in ethanol, 283.15 K): 0.0103
- solubility (mole fraction) (in ethanol, 288.15 K): 0.0122
- solubility (mole fraction) (in ethanol, 293.15 K): 0.0144
- solubility (mole fraction) (in ethanol, 298.15 K): 0.0175
- solubility (mole fraction) (in ethanol, 303.15 K): 0.0209
- solubility (mole fraction) (in ethanol, 308.15 K): 0.0241
- solubility (mole fraction) (in ethanol, 313.15 K): 0.028
- solubility (mole fraction) (in ethanol, 318.15 K): 0.0323
- solubility (mole fraction) (in ethanol, 323.15 K): 0.0379
- solubility (mole fraction) (in ethyl acetate, 278.15 K): 0.00491
- solubility (mole fraction) (in ethyl acetate, 283.15 K): 0.00583
- solubility (mole fraction) (in ethyl acetate, 288.15 K): 0.00674
- solubility (mole fraction) (in ethyl acetate, 293.15 K): 0.00802
- solubility (mole fraction) (in ethyl acetate, 298.15 K): 0.00937
- solubility (mole fraction) (in ethyl acetate, 303.15 K): 0.011
- solubility (mole fraction) (in ethyl acetate, 308.15 K): 0.0126
- solubility (mole fraction) (in ethyl acetate, 313.15 K): 0.0144
- solubility (mole fraction) (in ethyl acetate, 318.15 K): 0.0165
- solubility (mole fraction) (in ethyl acetate, 323.15 K): 0.0186
- solubility (mole fraction) (in isopropanol, 278.15 K): 0.0089
- solubility (mole fraction) (in isopropanol, 283.15 K): 0.0107
- solubility (mole fraction) (in isopropanol, 288.15 K): 0.0128
- solubility (mole fraction) (in isopropanol, 293.15 K): 0.0152
- solubility (mole fraction) (in isopropanol, 298.15 K): 0.018
- solubility (mole fraction) (in isopropanol, 303.15 K): 0.0213
- solubility (mole fraction) (in isopropanol, 308.15 K): 0.025
- solubility (mole fraction) (in isopropanol, 313.15 K): 0.0292
- solubility (mole fraction) (in isopropanol, 318.15 K): 0.034
- solubility (mole fraction) (in isopropanol, 323.15 K): 0.0394
- solubility (mole fraction) (in methanol, 278.15 K): 0.00787
- solubility (mole fraction) (in methanol, 283.15 K): 0.00924
- solubility (mole fraction) (in methanol, 288.15 K): 0.0107
- solubility (mole fraction) (in methanol, 293.15 K): 0.0124
- solubility (mole fraction) (in methanol, 298.15 K): 0.0145
- solubility (mole fraction) (in methanol, 303.15 K): 0.017
- solubility (mole fraction) (in methanol, 308.15 K): 0.0196
- solubility (mole fraction) (in methanol, 313.15 K): 0.0229
- solubility (mole fraction) (in methanol, 318.15 K): 0.0271
- solubility (mole fraction) (in methanol, 323.15 K): 0.0315
- solubility (mole fraction) (in methyl acetate, 278.15 K): 0.00916
- solubility (mole fraction) (in methyl acetate, 283.15 K): 0.0104
- solubility (mole fraction) (in methyl acetate, 288.15 K): 0.0117
- solubility (mole fraction) (in methyl acetate, 293.15 K): 0.0131
- solubility (mole fraction) (in methyl acetate, 298.15 K): 0.0147
- solubility (mole fraction) (in methyl acetate, 303.15 K): 0.0164
- solubility (mole fraction) (in methyl acetate, 308.15 K): 0.0182
- solubility (mole fraction) (in methyl acetate, 313.15 K): 0.0201
- solubility (mole fraction) (in methyl acetate, 318.15 K): 0.0221
- solubility (mole fraction) (in methyl acetate, 323.15 K): 0.0244
- solubility (mole fraction) (in n-butanol, 278.15 K): 0.0119
- solubility (mole fraction) (in n-butanol, 283.15 K): 0.014
- solubility (mole fraction) (in n-butanol, 288.15 K): 0.0163
- solubility (mole fraction) (in n-butanol, 293.15 K): 0.0189
- solubility (mole fraction) (in n-butanol, 298.15 K): 0.0218
- solubility (mole fraction) (in n-butanol, 303.15 K): 0.0249
- solubility (mole fraction) (in n-butanol, 308.15 K): 0.0283
- solubility (mole fraction) (in n-butanol, 313.15 K): 0.0319
- solubility (mole fraction) (in n-butanol, 318.15 K): 0.0358
- solubility (mole fraction) (in n-butanol, 323.15 K): 0.0399
- solubility (mole fraction) (in n-propanol, 278.15 K): 0.0102
- solubility (mole fraction) (in n-propanol, 283.15 K): 0.0126
- solubility (mole fraction) (in n-propanol, 288.15 K): 0.0152
- solubility (mole fraction) (in n-propanol, 293.15 K): 0.0182
- solubility (mole fraction) (in n-propanol, 298.15 K): 0.0216
- solubility (mole fraction) (in n-propanol, 303.15 K): 0.0254
- solubility (mole fraction) (in n-propanol, 308.15 K): 0.0296
- solubility (mole fraction) (in n-propanol, 313.15 K): 0.0342
- solubility (mole fraction) (in n-propanol, 318.15 K): 0.0391
- solubility (mole fraction) (in n-propanol, 323.15 K): 0.0445
